Values of other authors in patent US20240100168A1, “LIPID COMPOSITIONS AND METHODS OF PREPARATION THEREOF” (Wake Forest University, priority 2020, published 2024).

Key:
Settings in all cases: blocks production of pro-inflammatory eicosanoids
[1] = tested on: lipoxygenases
[2] = target: T1, COX2 (Homo sapiens, UniProt P35354)
T1 sequence (P35354 18-604): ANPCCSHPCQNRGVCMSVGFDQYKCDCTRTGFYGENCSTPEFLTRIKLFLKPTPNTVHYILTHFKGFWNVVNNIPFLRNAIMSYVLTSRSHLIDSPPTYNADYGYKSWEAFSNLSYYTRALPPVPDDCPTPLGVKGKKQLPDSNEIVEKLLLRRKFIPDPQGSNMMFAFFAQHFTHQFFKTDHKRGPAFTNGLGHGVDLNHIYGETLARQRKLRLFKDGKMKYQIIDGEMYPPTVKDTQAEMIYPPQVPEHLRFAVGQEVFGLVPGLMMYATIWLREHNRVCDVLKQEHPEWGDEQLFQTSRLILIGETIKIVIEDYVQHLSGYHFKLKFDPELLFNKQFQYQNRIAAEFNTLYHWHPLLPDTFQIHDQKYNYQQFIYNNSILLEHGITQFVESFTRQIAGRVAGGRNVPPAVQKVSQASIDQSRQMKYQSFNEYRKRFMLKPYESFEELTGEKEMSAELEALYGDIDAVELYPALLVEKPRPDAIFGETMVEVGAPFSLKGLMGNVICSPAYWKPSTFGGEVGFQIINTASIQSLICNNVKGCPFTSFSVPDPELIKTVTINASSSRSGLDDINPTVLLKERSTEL

[3] = target: COX1 (Homo sapiens, UniProt P23219)
COX1, sequence (P23219 24-599): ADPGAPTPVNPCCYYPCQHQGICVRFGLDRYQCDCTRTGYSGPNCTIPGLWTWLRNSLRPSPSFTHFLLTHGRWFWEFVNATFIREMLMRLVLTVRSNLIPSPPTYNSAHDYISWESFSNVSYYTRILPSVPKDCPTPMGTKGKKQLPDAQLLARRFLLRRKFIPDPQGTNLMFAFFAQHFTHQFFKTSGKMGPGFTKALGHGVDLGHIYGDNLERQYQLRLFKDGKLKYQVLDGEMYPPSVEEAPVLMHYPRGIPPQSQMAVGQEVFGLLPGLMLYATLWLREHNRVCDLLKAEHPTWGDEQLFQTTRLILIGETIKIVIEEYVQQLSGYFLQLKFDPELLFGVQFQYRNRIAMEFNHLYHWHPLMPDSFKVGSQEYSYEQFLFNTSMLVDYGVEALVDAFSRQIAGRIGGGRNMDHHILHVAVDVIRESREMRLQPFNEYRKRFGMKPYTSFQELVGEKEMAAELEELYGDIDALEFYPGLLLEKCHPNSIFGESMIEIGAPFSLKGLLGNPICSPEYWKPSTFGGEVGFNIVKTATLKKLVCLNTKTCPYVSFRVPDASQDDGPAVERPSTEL

CC/C=C\C/C=C\C/C=C\C/C=C\CCCCCCC(=O)O [ETA, 8Z,11Z,14Z,17Z-eicosatetraenoic acid]
dual inhibitor: inhibition of lipoxygenases [1] | inhibition of COX2 [2] | inhibition of COX1 [3]
